In US20240262819A1, “NOVEL COMPOUNDS HAVING INHIBITORY ACTIVITY AGAINST GLUCOSYLCERAMIDE SYNTHASE OR PHARMACEUTICALLY ACCEPTABLE SALT THEREOF, PROCESSES FOR PREPARING THE SAME, AND PHARMACEUTICAL COMPOSITIONS COMPRISING THE SAME” (YUHAN CORPORATION, priority 2021, published 2024):

System: GM1 production in Jurkat cells
Test: cells
Format: cell-based
Conditions: Homo sapiens, Jurkat, 72 h

`CCc1cccc(-c2ccc3c(c2)CC(C)(C)[C@H]3NC(=O)O[C@@H]2CN3CCC2CC3)c1` [Example 1, (S)-quinuclidin-3-yl((R)-5-(3-ethylphenyl)-2,2-dimethyl-2,3-dihydro-1H-inden-1-yl)carbamate] and `CC(C)c1cccc(-c2ccc3c(c2)CC(C)(C)[C@H]3NC(=O)O[C@@H]2CN3CCC2CC3)c1` [Example 2, (S)-quinuclidin-3-yl((R)-5-(3-isopropylphenyl)-2,2-dimethyl-2,3-dihydro-1H-inden-1-yl)carbamate] are within 1.5-fold of each other in IC50: 4.53 nM for the first, 3.75 nM for the second.

Compared with `CCCCc1ccc(-c2ccc3c(c2)CC(C)(C)[C@H]3NC(=O)O[C@@H]2CN3CCC2CC3)cc1` [Example 3, (S)-quinuclidin-3-yl((R)-5-(4-butylphenyl)-2,2-dimethyl-2,3-dihydro-1H-inden-1-yl)carbamate], `CCCc1ccc(-c2ccc3c(c2)CC(C)(C)[C@H]3NC(=O)O[C@@H]2CN3CCC2CC3)cc1` [Example 4, (S)-quinuclidin-3-yl((R)-2,2-dimethyl-5-(4-propylphenyl)-2,3-dihydro-1H-inden-1-yl)carbamate] is 3-fold higher in IC50: 1.24 nM for the first, 3.74 nM for the second. The first is the more potent here.

Going from `CC(C)Cc1ccc(-c2ccc3c(c2)CC(C)(C)[C@H]3NC(=O)O[C@@H]2CN3CCC2CC3)cc1` [Example 5, (S)-quinuclidin-3-yl((R)-5-(4-isobutylphenyl)-2,2-dimethyl-2,3-dihydro-1H-inden-1-yl)carbamate] to `CC(C)COc1ccc(-c2ccc3c(c2)CC(C)(C)[C@H]3NC(=O)O[C@@H]2CN3CCC2CC3)cc1` [Example 8, (S)-quinuclidin-3-yl((R)-5-(4-isobutoxyphenyl)-2,2-dimethyl-2,3-dihydro-1H-inden-1-yl)carbamate], the IC50 falls from 4.14 nM to 1.09 nM (3.8-fold). The second is the more potent here.

`CC(C)(C)c1ccc(-c2ccc3c(c2)CC(C)(C)[C@H]3NC(=O)O[C@@H]2CN3CCC2CC3)cc1` [Example 6, (S)-quinuclidin-3-yl((R)-5-(4-(tert-butyl)phenyl)-2,2-dimethyl-2,3-dihydro-1H-inden-1-yl)carbamate] and `CCOc1ccc(-c2ccc3c(c2)CC(C)(C)[C@H]3NC(=O)O[C@@H]2CN3CCC2CC3)cc1` [Example 7, (S)-quinuclidin-3-yl((R)-5-(4-ethoxyphenyl)-2,2-dimethyl-2,3-dihydro-1H-inden-1-yl)carbamate] are within 1.5-fold of each other in IC50: 9.97 nM for the first, 13.7 nM for the second.

First: CC1(C)Cc2cc(-c3ccc(OCC4CC4)nc3)ccc2[C@@H]1NC(=O)O[C@@H]1CN2CCC1CC2 [Example 13, (S)-quinuclidin-3-yl((R)-5-(6-(cyclopropylmethoxy)pyridin-3-yl)-2,2-dimethyl-2,3-dihydro-1H-inden-1-yl)carbamate]
Second: CCOc1ccc(-c2ccc3c(c2)CC(C)(C)[C@H]3NC(=O)O[C@@H]2CN3CCC2CC3)cc1F [Example 19, (S)-quinuclidin-3-yl((R)-5-(4-ethoxy-3-fluorophenyl)-2,2-dimethyl-2,3-dihydro-1H-inden-1-yl)carbamate]
The IC50 of the first is 13-fold lower: 4.15 nM for the first, 56 nM for the second.

First: CCCCOc1ccc(-c2ccc3c(c2)CC(C)(C)[C@H]3NC(=O)O[C@@H]2CN3CCC2CC3)cc1Cl [Example 17, (S)-quinuclidin-3-yl((R)-5-(4-butoxy-3-chlorophenyl)-2,2-dimethyl-2,3-dihydro-1H-inden-1-yl)carbamate]
Second: CCCCOc1ccc(-c2cc3c(cc2F)[C@H](NC(=O)O[C@@H]2CN4CCC2CC4)C(C)(C)C3)cc1 [Example 70, (S)-quinuclidin-3-yl((R)-5-(4-butoxyphenyl)-6-fluoro-2,2-dimethyl-2,3-dihydro-1H-inden-1-yl)carbamate]
The IC50 of the first is 34-fold higher: 20.6 nM for the first, 0.6 nM for the second.

Going from `CCOc1ccc(-c2cc3c(cc2F)[C@H](NC(=O)O[C@@H]2CN4CCC2CC4)C(C)(C)C3)cc1` [Example 56, (S)-quinuclidin-3-yl((R)-5-(4-ethoxyphenyl)-6-fluoro-2,2-dimethyl-2,3-dihydro-1H-inden-1-yl)carbamate] to `CCc1ccc(-c2cc3c(cc2F)[C@H](NC(=O)O[C@@H]2CN4CCC2CC4)C(C)(C)C3)cc1` [Example 58, (S)-quinuclidin-3-yl((R)-5-(4-ethylphenyl)-6-fluoro-2,2-dimethyl-2,3-dihydro-1H-inden-1-yl)carbamate], the IC50 falls from 10.7 nM to 5.74 nM (1.9-fold). The second is the more potent here.

Going from `CCCCc1ccc(-c2cc3c(cc2F)[C@H](NC(=O)O[C@@H]2CN4CCC2CC4)C(C)(C)C3)cc1` [Example 60, (S)-quinuclidin-3-yl((R)-5-(4-butylphenyl)-6-fluoro-2,2-dimethyl-2,3-dihydro-1H-inden-1-yl)carbamate] to `CCCCOc1cccc(-c2cc3c(cc2F)[C@H](NC(=O)O[C@@H]2CN4CCC2CC4)C(C)(C)C3)c1` [Example 79, (S)-quinuclidin-3-yl((R)-5-(3-butoxyphenyl)-6-fluoro-2,2-dimethyl-2,3-dihydro-1H-inden-1-yl)carbamate], the IC50 rises from 1 nM to 6 nM (6-fold).

Going from `CCc1cccc(-c2cc3c(cc2F)[C@H](NC(=O)O[C@@H]2CN4CCC2CC4)C(C)(C)C3)c1` [Example 71, (S)-quinuclidin-3-yl((R)-5-(3-ethylphenyl)-6-fluoro-2,2-dimethyl-2,3-dihydro-1H-inden-1-yl)carbamate] to `CC(C)Cc1cccc(-c2cc3c(cc2F)[C@H](NC(=O)O[C@@H]2CN4CCC2CC4)C(C)(C)C3)c1` [Example 74, (S)-quinuclidin-3-yl((R)-6-fluoro-5-(3-isobutylphenyl)-2,2-dimethyl-2,3-dihydro-1H-inden-1-yl)carbamate], the IC50 rises from 12.7 nM to 19.4 nM (1.5-fold). The first is the more potent here.

First: CC(C)c1cccc(-c2cc3c(cc2F)[C@H](NC(=O)O[C@@H]2CN4CCC2CC4)C(C)(C)C3)c1 [Example 73, (S)-quinuclidin-3-yl((R)-6-fluoro-5-(3-isopropylphenyl)-2,2-dimethyl-2,3-dihydro-1H-inden-1-yl)carbamate]
Second: CC(C)COc1cccc(-c2cc3c(cc2F)[C@H](NC(=O)O[C@@H]2CN4CCC2CC4)C(C)(C)C3)c1 [Example 78, (S)-quinuclidin-3-yl((R)-6-fluoro-5-(3-isobutoxyphenyl)-2,2-dimethyl-2,3-dihydro-1H-inden-1-yl)carbamate]
The IC50 of the first is 1.6-fold lower: 10.8 nM for the first, 17.6 nM for the second.

First: COc1cccc(-c2cc3c(cc2F)[C@H](NC(=O)O[C@@H]2CN4CCC2CC4)C(C)(C)C3)c1 [Example 75, (S)-quinuclidin-3-yl((R)-6-fluoro-5-(3-methoxyphenyl)-2,2-dimethyl-2,3-dihydro-1H-inden-1-yl)carbamate]
Second: CCOc1cccc(-c2cc3c(cc2F)[C@H](NC(=O)O[C@@H]2CN4CCC2CC4)C(C)(C)C3)c1 [Example 76, (S)-quinuclidin-3-yl((R)-5-(3-ethoxyphenyl)-6-fluoro-2,2-dimethyl-2,3-dihydro-1H-inden-1-yl)carbamate]
The IC50 of the first is 2.3-fold lower: 14.8 nM for the first, 33.4 nM for the second. The first is the more potent here.

Compared with `CCCOc1cccc(-c2cc3c(cc2F)[C@H](NC(=O)O[C@@H]2CN4CCC2CC4)C(C)(C)C3)c1` [Example 77, (S)-quinuclidin-3-yl((R)-6-fluoro-2,2-dimethyl-5-(3-propoxyphenyl)-2,3-dihydro-1H-inden-1-yl)carbamate], `CCOc1c(C)cc(-c2cc3c(cc2F)[C@H](NC(=O)O[C@@H]2CN4CCC2CC4)C(C)(C)C3)cc1C` [Example 80, (S)-quinuclidin-3-yl((R)-5-(4-ethoxy-3,5-dimethylphenyl)-6-fluoro-2,2-dimethyl-2,3-dihydro-1H-inden-1-yl)carbamate] is 2.2-fold higher in IC50: 23.7 nM for the first, 51 nM for the second. The first is the more potent here.

Same assay, conditions: read-out: IC50

In the case of `COc1ccc(-c2ccc3c(c2)CC(C)(C)[C@H]3NC(=O)O[C@@H]2CN3CCC2CC3)c(F)c1` [Example 12, (S)-quinuclidin-3-yl((R)-5-(2-fluoro-4-methoxyphenyl)-2,2-dimethyl-2,3-dihydro-1H-inden-1-yl) carbamate], the IC50 is reported as 5.94 nM.
